Like-named read-outs stand apart in the source and are kept apart here.
Experiments:
[1] = biological target: T1, human mGlu4 (Homo sapiens, UniProt Q14833); assay: mGlu4 PAM potentiation in human mGlu4/Gqi5 cells with ~EC20 glutamate (Hamamatsu FDSS); format: cell-based; details: ~EC20 concentration of glutamate
T1 construct: expressed in transfected cells; host or cells: CHO (Chinese Hamster Ovary) cells
Description: The disclosed compounds and compositions can be evaluated for their ability to act as a potentiatior of metabotropic glutamate receptor activity, in particular mGluR4 activity, by any suitable known methodology known in the art. For example, Chinese Hamster Ovary (CHO) cells transfected with human mGluR4 or HEK cells co-transfected with rat mGluR4 and the G-protein regulated Inwardly Rectifying Potassium channel (GIRK) were plated in clear bottom assay plates for assay in a Hamamatsu FDSS Fluorometric Plate Reader. The cells were loaded with either a Ca2+-sensitive fluorescent dye or the thallium responsive dye and the plates were washed and placed into a suitable kinetic plate reader. For human mGluR4 assays, a fluorescence baseline was established for 3-5 seconds, the disclosed compounds were then added to the cells, and the response in cells was measured. Approximately two and a half minutes later, a concentration of mGluR4 orthosteric agonist (e.g. glutamate, L-AP4, or L-SOP) eliciting approximately 20% (EC20) of the maximal agonist response was added to the cells, and the response was measured. Two minutes later, a concentration of mGluR4 agonist (e.g. glutamate, L-AP4, or L-SOP) eliciting 80% (EC80) of the maximal agonist response was added to the cells, and the response was measured. For rat mGluR4/GIRK experiments, a baseline was established for approximately five seconds, disclosed compounds were added, and either an EC20 or EC80 concentration of agonist was added approximately two and one half minutes later.
The above described assay operated in two modes. In the first mode, a range of concentrations of the disclosed compounds are added to cells, followed by a single fixed concentration of agonist. If the compound acts as a potentiatior, an EC50 value for potentiation and a maximum extent of potentiation by the compound at this concentration of agonist is determined by non-linear curve fitting. If the compound acts as an antagonist, an IC50 value is determined by non-linear curve fitting. In the second mode, several fixed concentrations of the disclosed compounds are added to various wells on a plate, followed by a range in concentrations of agonist for each concentration of disclosed compound. The EC50 values for the agonist at each concentration of compound are determined by non-linear curve fitting. A decrease in the EC50 value of the agonist with increasing concentrations of the sample compound (a leftward shift of the agonist concentration-response curve) is an indication of the degree of mGluR4 potentiation at a given concentration of the sample compound. A decrease in the maximal response of the agonist with increasing concentrations of the sample compounds, with or without a rightward shift in agonist potency, is an indication of the degree of antagonism at mGluR4. The second mode also indicates whether the sample compounds also affect the maximum response to mGluR4 to agonists.

[2] = Brain-plasma Kp (CNS penetration); format: in vivo; details: rat, brain and plasma; species not given

T1 sequence (Q14833 33-912): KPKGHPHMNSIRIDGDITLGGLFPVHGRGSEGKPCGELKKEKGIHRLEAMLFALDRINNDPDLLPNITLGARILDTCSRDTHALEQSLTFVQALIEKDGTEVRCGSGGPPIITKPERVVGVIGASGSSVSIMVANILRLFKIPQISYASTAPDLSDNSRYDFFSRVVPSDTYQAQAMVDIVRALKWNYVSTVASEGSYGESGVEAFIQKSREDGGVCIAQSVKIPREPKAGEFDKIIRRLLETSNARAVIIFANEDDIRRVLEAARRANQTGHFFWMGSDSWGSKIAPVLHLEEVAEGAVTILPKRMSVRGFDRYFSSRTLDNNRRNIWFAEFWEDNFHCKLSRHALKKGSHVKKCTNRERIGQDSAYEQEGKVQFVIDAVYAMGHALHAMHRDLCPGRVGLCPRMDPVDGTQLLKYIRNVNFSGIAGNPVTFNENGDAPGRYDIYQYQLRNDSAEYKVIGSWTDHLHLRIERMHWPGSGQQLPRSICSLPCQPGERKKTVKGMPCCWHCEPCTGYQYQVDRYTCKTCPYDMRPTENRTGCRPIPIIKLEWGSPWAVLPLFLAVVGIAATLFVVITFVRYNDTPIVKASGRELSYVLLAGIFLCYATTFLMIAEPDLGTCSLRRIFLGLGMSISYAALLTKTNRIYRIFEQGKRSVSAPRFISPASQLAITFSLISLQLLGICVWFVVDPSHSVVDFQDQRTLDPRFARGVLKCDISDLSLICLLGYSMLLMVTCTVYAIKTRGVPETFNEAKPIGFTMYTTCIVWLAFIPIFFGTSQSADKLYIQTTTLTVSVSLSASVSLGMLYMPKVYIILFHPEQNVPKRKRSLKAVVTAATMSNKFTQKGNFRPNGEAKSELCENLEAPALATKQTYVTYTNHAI

Row | SMILES | EC50 ([1]; read-out: mGlu4 PAM EC50) | Kp [2] | EC50 ([1]; second chart, read-out: hmGluR4 PAM EC50)
1 | CC(C)Oc1nn(C)c2cc(Nc3n[nH]c4cccnc34)ccc12 [Compound 1] | 413 nM | – | –
2 | Cc1cc(COc2nn(C)c3cc(Nc4n[nH]c5cccnc45)ccc23)on1 [Compound 2] | 104 nM | – | –
3 | Cn1nc(OCC2CCCOC2)c2ccc(NC(=O)c3ccc(F)cn3)cc21 (stereo not shown) | – | 3.29 | 99.2 nM

Other lines, results leading:

Row | EC50 ([1]; read-out: mGlu4 PAM EC50) | Kp [2] | EC50 ([1]; second chart, read-out: hmGluR4 PAM EC50) | SMILES
4 | 991 nM | – | – | Cc1ccnc(C(=O)Nc2ccc3c(OCC4CCOC4)nn(C)c3c2)c1 (stereo not shown) [Compound 98]
5 | 82.7 nM | – | – | Cn1nc(OCc2cccnc2)c2ccc(Nc3n[nH]c4cccnc34)cc21 [Compound 6]
6 | 231 nM | – | – | CC(C)COc1nn(C)c2cc(Nc3n[nH]c4cccnc34)ccc12 [Compound 3]

Source: patent US12291521B2, “Indazole compounds as mGluR4 allosteric potentiators, compositions, and methods of treating neurological dysfunction” (Vanderbilt University, priority 2017, dated 2025)
